Data published in the NIST ThermoML archive (doi:10.1021/je5000617).

Conditions: for mass density / speed of sound / viscosity: 101.33 kPa, Liquid; for viscosity: Concentric cylinders viscometry

CCCCn1cc[n+](C)c1.F[P-](F)(F)(F)(F)F [1-butyl-3-methylimidazolium hexafluorophosphate]
Conditions | mass density [kg/m3] | speed of sound [m/s] | surface tension liquid-gas [mN/m] | viscosity [mPa·s]
303 K | 1359.4 | 1433 | 45.3 | 190
308 K | 1358.2 | 1417 | 45 | 150
313 K | 1353.2 | 1408 | 44.7 | 132
318 K | 1349.8 | 1395 | 44.4 | 106
323 K | 1346.8 | 1384 | 44.1 | 90
328 K | 1343.8 | 1374 | 43.8 | 75
333 K | 1340.6 | 1363 | 43.5 | 58

CCCCCCCCOS(=O)(=O)[O-].CCCCn1cc[n+](C)c1 [1-butyl-3-methylimidazolium octyl sulfate]
Conditions | mass density [kg/m3] | speed of sound [m/s] | surface tension liquid-gas [mN/m]
303 K | 1060.2 | 1461 | 35.7
308 K | 1057.8 | 1450 | 35.2
313 K | 1053.2 | 1430 | 34.9
318 K | 1050.8 | 1419 | 34.7
323 K | 1046.4 | 1406 | 34.3
328 K | 1042.2 | 1391 | 33.9
333 K | 1039.8 | 1380 | –

CCn1cc[n+](C)c1.CS(=O)(=O)[O-] [1-ethyl-3-methylimidazolium methanesulfonate]
Conditions | mass density [kg/m3] | speed of sound [m/s] | surface tension liquid-gas [mN/m] | viscosity [mPa·s]
303 K | 1247 | 1796 | 47.8 | 120
308 K | 1243.2 | 1778 | 47.4 | 87
313 K | 1240.2 | 1764 | 47 | 63
318 K | 1237.6 | 1752 | 46.7 | 48
323 K | 1234.4 | 1738 | 46.1 | 37
328 K | 1232.4 | 1727 | 45.7 | 29
333 K | 1230.2 | 1708 | 45.4 | 20
